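Five compound concentrations were applied to cells in 96-well plates for 48 hours; endpoints were derived by simple linear interpolation of the resulting dose-response curve. The concentration for 50% growth inhibition is given as GI50. TGI is the concentration that stops growth completely.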
Columns and labels:
Test in all cases: DTP human tumour cell line panel, 48 h
[1] = tested on: HL-60(TB) leukemia
[2] = tested on: A549 NSCLC
[3] = tested on: OVCAR-8 ovarian
[4] = tested on: NCI/ADR-RES ovarian
[5] = tested on: OVCAR-4 ovarian
[6] = tested on: RPMI-8226 leukemia
[7] = tested on: COLO 205 colon
[8] = tested on: NCI-H460 lung
[9] = tested on: MOLT-4 leukemia
[10] = tested on: SN12C renal

Row | Structure (SMILES) | TGI [1] | TGI [2] | TGI [3] | TGI [4] | TGI [5] | TGI [6] | TGI [7] | TGI [8] | TGI [9] | TGI [10] | GI50 [1] | GI50 [2] | GI50 [3] | GI50 [4] | GI50 [5] | GI50 [6] | GI50 [7] | GI50 [8] | GI50 [9] | GI50 [10]
1 | C=C1C(=O)OC2CC3(C)OC3CC/C(C)=C/C(OC(C)=O)C12 (stereo not given) | 3.4 µM | 33.7 µM | 13.6 µM | 30.1 µM | 16.1 µM | 14.3 µM | 4.03 µM | 31.6 µM | 13.9 µM | 26.3 µM | – | – | – | – | – | – | – | – | – | –
2 | Cc1cc(S(=O)(=O)/N=C(/NN)NNc2cccc(C(F)(F)F)n2)c(S)cc1Cl | 71.6 µM | 44.1 µM | 58.3 µM | 46.2 µM | 36 µM | > 100 µM | 38.5 µM | 72.8 µM | 45.7 µM | > 100 µM | – | – | – | – | – | – | – | – | – | –
3 | O=C1CC2CCC(C1)S2=O (stereo not given) | > 100 µM | > 100 µM | > 100 µM | > 100 µM | > 100 µM | > 100 µM | > 100 µM | > 100 µM | > 100 µM | > 100 µM | – | – | – | – | – | – | – | – | – | –
4 | CC(C)(C)[Si](C)(C)OCC1OC(n2cnc3c(=O)[nH]c(N)nc32)C(O[Si](C)(C)C(C)(C)C)C1O[Si](C)(C)C(C)(C)C (stereo not given) | 2.34 µM | 7.61 µM | 11.3 µM | > 100 µM | 3.65 µM | 3.46 µM | 3.2 µM | 6.54 µM | 3.45 µM | 5.02 µM | – | – | – | – | – | – | – | – | – | –
5 | C=C1CN(C2=NCCO2)C1 | > 100 µM | > 100 µM | > 100 µM | > 100 µM | > 100 µM | > 100 µM | > 100 µM | > 100 µM | > 100 µM | > 100 µM | – | – | – | – | – | – | – | – | – | –
6 | Cc1ccc([N+](=O)[O-])c2c(NCC(O)CO)ccnc12 (stereo not given) | > 100 µM | > 100 µM | > 100 µM | > 100 µM | > 100 µM | > 100 µM | 75.1 µM | 53.2 µM | > 100 µM | > 100 µM | – | – | – | – | – | – | – | – | – | –
7 | CC1(C)CCc2c(c(N=Nc3ccc(F)cc3)c3ccccc3c2O)O1 | 65.1 µM | 32.2 µM | > 100 µM | > 100 µM | > 100 µM | > 100 µM | > 100 µM | 63.4 µM | > 100 µM | > 100 µM | – | – | – | – | – | – | – | – | – | –
8 | COc1ccc(N2NC(c3ccccc3)(c3ccccc3)C(C)C2=O)cc1 (stereo not given) | > 100 µM | > 100 µM | > 100 µM | > 100 µM | > 100 µM | > 100 µM | 34 µM | > 100 µM | > 100 µM | > 100 µM | – | – | – | – | – | – | – | – | – | –
9 | c1ccc(CN2CCN3CCN(CC2)CCN(Cc2ccccc2)CC3)cc1 | 8.32 µM | > 56.1 µM | 23.3 µM | > 100 µM | 20.3 µM | 9.83 µM | 5.06 µM | 19.3 µM | > 56.7 µM | 16.9 µM | – | – | – | – | – | – | – | – | – | –
10 | COC(=O)c1c(O)ccc2c1c1c(n2Cc2ccccc2)C(=O)c2ccccc2C1 | > 100 µM | > 100 µM | > 100 µM | 89.9 µM | 70.4 µM | 32.6 µM | 28.9 µM | > 100 µM | 37.6 µM | 45.4 µM | – | – | – | – | – | – | – | – | – | –
11 | N#CC(C#N)=C1C(=O)NC(N)=C1C#N | > 100 µM | > 100 µM | > 100 µM | > 100 µM | > 100 µM | > 100 µM | > 100 µM | > 100 µM | > 100 µM | > 100 µM | – | – | – | – | – | – | – | – | – | –
12 | CCCCCCCCCCCCCC(=O)N(CCCCCCCCC)CC(O)C(O)C(OC1OC(CO)C(O)C(O)C1O)C(O)CO (stereo not given) | 48.7 µM | 50.5 µM | 39.3 µM | 37.7 µM | 46.6 µM | 52.1 µM | 37.3 µM | 39.1 µM | 44.9 µM | 37.1 µM | – | – | – | – | – | – | – | – | – | –
13 | Cc1c(C(=O)O)n2cnnc2c2ccccc12 | > 100 µM | > 100 µM | > 100 µM | > 100 µM | > 100 µM | > 100 µM | > 100 µM | > 100 µM | > 100 µM | > 100 µM | – | – | – | – | – | – | – | – | – | –
14 | COc1ccc(-c2nn(-c3ccc(NC(=O)Nc4ccc(Cl)c(C(F)(F)F)c4)cc3)cc2-c2ccncc2)cc1Cl | 5.75 µM | > 100 µM | 20.7 µM | > 100 µM | 21.9 µM | 1.92 µM | 3.13 µM | 3.36 µM | 6.75 µM | 8.69 µM | 2.13 µM | 1.2 µM | 2.02 µM | 2.4 µM | 1.98 µM | 0.388 µM | 1.62 µM | 1.4 µM | 1.7 µM | 2.23 µM
15 | COc1ccc(C(=O)/C=C/c2cc(O)c(O)cc2F)c(OC)c1 | 5.71 µM | > 75.4 µM | > 76.6 µM | > 68.7 µM | > 100 µM | 36.4 µM | 29.8 µM | 17.7 µM | 45.1 µM | 18 µM | – | – | – | – | – | – | – | – | – | –
16 | Cc1ccc(NC(=O)CSC(N)=O)cc1C | > 100 µM | > 100 µM | > 100 µM | > 100 µM | > 100 µM | > 100 µM | > 100 µM | > 100 µM | > 100 µM | > 100 µM | – | – | – | – | – | – | – | – | – | –
17 | CC(=O)c1c2n(n(-c3ccccc3)c1=O)C(=O)c1nccnc1-2 | > 100 µM | > 100 µM | > 100 µM | > 100 µM | > 100 µM | > 100 µM | > 100 µM | > 100 µM | > 100 µM | > 100 µM | – | – | – | – | – | – | – | – | – | –
